Laboratory results as given in patent publication US20170152226A1, “FUNCTIONALISED AND SUBSTITUTED INDOLES AS ANTI-CANCER AGENTS” (Novogen Ltd., priority 2014, published 2017).
pIC50: −log10 of the molar value. Read-outs that look alike come from different tables or passages of the source.

How the values were obtained:
Assay type in all cases: cell-based
[1] = system: total actin cytoskeleton in SK-N-SH neuroblastoma cells; assay: Microfilament disruption assay, phalloidin staining; details: 0-40 μM, 24 hours post treatment
Protocol: (§1) FIG. 1: Imaging and quantitation of actin filaments in SK-N-SH neuroblastoma cells treated with compound (A) 3504, (B) 3507 and (C) 3516. Cells were stained with 488-Atto-Phallodin and DAPI to visualize the actin filament bundles and the nucleus, respectively. Shown in the top panel is a representative grey scale immunofluorescent image from control (vehicle alone), 5 μM and 10 μM treated cells. […] The coloured lines indicate the detected actin filaments. Also shown is the quantitation of cell number, filament number/cell and filament number/cell area (μM^2). […]
(§2) The ability of compounds 3504, 3507 and 3516 to disrupt the total actin cytoskeleton (FIG. 1) and to specifically target Tpm3.1-containing actin filaments (FIG. 2) was assessed in vitro using the microfilament disruption assay.
(§3) Briefly, SK-N-SH neuroblastoma cells were seeded at 1800 cells/well in a 384 Perkin Elmer High Content Imaging “View” plate and left to plate down 24 hours prior to treatment. […] Images were then exported and changes in the organization and numbers of actin filaments within the cell were quantitated using a linear feature detection algorithm developed by the CSIRO (Vindin et al., 2014). […] It is these “ridge lines” that correspond to actin filament bundles and allow us to quantitate the number of filaments per cell.

[2] = system: Tpm3.1-containing actin filaments in SK-N-SH neuroblastoma cells; assay: Microfilament disruption assay, γ9d staining; details: 0-40 μM, 24 hours post treatment
Protocol: as §1, with “FIG. 2:” for “FIG. 1:”, “with γ9d (sheep polycolonal, 1:100) followed by 488-conjugated secondary (1:1000)” for “with 488-Atto-Phallodin”, “the Tpm3.1 containing” for “the actin”
as §2, §3

[3] = system: SK-Mel-28; assay: Anti-proliferative activity, cell-titre luminescent viability assay; details: Homo sapiens, SK-MEL-28, 72 hours, read-out: IC50 Melanoma SK-Mel-28
Method in brief: (§4)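 Cells were seeded at pre-determined densities, cultured 24 hours at 37° C/5% CO2, then exposed 72 hours to compound at 0.03, 0.3, 3 and 30 μM or at 0.1, 0.3, 1, 3, 10 and 30 μM. Viability was read by cell-titre luminescence after 30 min, normalized to untreated control, and IC50 or EC50 derived.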

[4] = system: CaCo2; assay: as above; details: Homo sapiens, read-out: IC50 Colorectal CaCo2
Method in brief: as §4

[5] = system: PC3; assay: as above; details: Homo sapiens, read-out: IC50 Prostate PC3
Method in brief: as §4

[6] = system: A549; assay: as above; details: Homo sapiens, read-out: IC50 Lung (NSLC) A549
Method in brief: as §4

[7] = system: MDA-MB-231; assay: as above; details: Homo sapiens, read-out: IC50 Breast MDA-MB-231
Method in brief: as §4

[8] = system: SK-N-SH; assay: as above; details: Homo sapiens, SK-N-SH, read-out: IC50 Neuroblastoma SK-N-SH
Method in brief: as §4

[9] = system: DU145; assay: as above; details: Homo sapiens, read-out: IC50 Prostate DU145
Method in brief: as §4

[10] = system: IFN-γ; assay: Inhibition of cytokine release from PBMCs (HTRF); details: PBMC, human PBMCs, PMA and ionomycin stimulated
Protocol: (§5) The ability of compounds 3507, 3520, 3534 and 3538 to inhibit the release of cytokines TNF-α, IFN-γ, IL-6, IL-21, IL-17A and IL-23 was evaluated in vitro (Tables 4 and 5). Briefly, human peripheral blood mononuclear cells (PBMCs) were isolated from human peripheral blood by Histopaque density gradient centrifugation. The freshly isolated PBMCs were seeded at 50,000 cells/well in a 96-well half area plate. PBMCs were dosed with the test compounds (at 10 μM, 1 μM and 0.1 μM) and then incubated at 37° C. and 5% CO2 for 2 hours. To stimulate release of the cytokines IFN-γ, IL-21, IL-17A and IL-23, the PBMCs were treated with 50 ng/mL of phorbol 12-myristate 13-acetate (PMA) and 1 μg/mL of ionomycin and to stimulate the release of TNF-α and IL-6, PBMCs were treated with 100 ng/mL of lipopolysaccharide (LPS) from gram-negative bacteria. The PBMCs were then incubated at 37° C. and 5% CO2 for a further 6 hours and the cell supernatant was collected and a Homogenous Time Resolved Fluorescence (HTRF) assay was carried out following the manufacturer's instructions. Cytokine release from the PBMCs was captured using a Perkin Elmer ENVISION 2104 microplate reader set at 615 nm and 665 nm respectively.

[11] = system: IL-23; assay: Inhibition of cytokine release from PBMCs (HTRF); details: PBMC, human PBMCs, PMA and ionomycin stimulated
Protocol: as §5

[12] = system: IL-17A; assay: Inhibition of cytokine release from PBMCs (HTRF); details: PBMC, human PBMCs, PMA and ionomycin stimulated
Protocol: as §5

[13] = system: IL-6; assay: Inhibition of cytokine release from PBMCs (HTRF); details: PBMC, human PBMCs, LPS stimulated
Protocol: as §5

[14] = system: IL-21; assay: Inhibition of cytokine release from PBMCs (HTRF); details: PBMC, human PBMCs, PMA and ionomycin stimulated
Protocol: as §5

[15] = system: TNF-α; assay: Inhibition of cytokine release from PBMCs (HTRF); details: PBMC, human PBMCs, LPS stimulated
Protocol: as §5

[16] = 0.1, 0.3, 1, 3, 10 and 30 μM, nonlinear regression sigmoidal dose-response (EC50)
[17] = Caco-2, 72 h, 0.1, 0.3, 1, 3, 10 and 30 μM, nonlinear regression sigmoidal dose-response (EC50)
[18] = PC-3, 72 h, 0.1, 0.3, 1, 3, 10 and 30 μM, nonlinear regression sigmoidal dose-response (EC50)
[19] = A549, 72 h, 0.1, 0.3, 1, 3, 10 and 30 μM, nonlinear regression sigmoidal dose-response (EC50)
[20] = MDA-MB-231, 72 h, 0.1, 0.3, 1, 3, 10 and 30 μM, nonlinear regression sigmoidal dose-response (EC50)
[21] = 72 h, 0.1, 0.3, 1, 3, 10 and 30 μM, nonlinear regression sigmoidal dose-response (EC50)
[22] = DU-145, 72 h, 0.1, 0.3, 1, 3, 10 and 30 μM, nonlinear regression sigmoidal dose-response (EC50)
[23] = 0.03, 0.3, 3 and 30 μM, linear regression of semi-log plots
[24] = Caco-2, 72 h, 0.03, 0.3, 3 and 30 μM, linear regression of semi-log plots
[25] = PC-3, 72 h, 0.03, 0.3, 3 and 30 μM, linear regression of semi-log plots
[26] = A549, 72 h, 0.03, 0.3, 3 and 30 μM, linear regression of semi-log plots
[27] = MDA-MB-231, 72 h, 0.03, 0.3, 3 and 30 μM, linear regression of semi-log plots
[28] = 72 h, 0.03, 0.3, 3 and 30 μM, linear regression of semi-log plots
[29] = DU-145, 72 h, 0.03, 0.3, 3 and 30 μM, linear regression of semi-log plots

pIC50 [3, 16]	pIC50 [4, 17]	Structure (SMILES)	inhibition at 0.1 µM [10]	inhibition at 1 µM [10]	inhibition at 10 µM [10]	inhibition at 0.1 µM [11]	inhibition at 1 µM [11]	inhibition at 10 µM [11]	inhibition at 0.1 µM [12]	inhibition at 1 µM [12]	inhibition at 10 µM [12]	inhibition at 0.1 µM [13]	inhibition at 1 µM [13]	inhibition at 10 µM [13]	inhibition at 0.1 µM [14]	inhibition at 1 µM [14]	inhibition at 10 µM [14]	inhibition at 0.1 µM [15]	inhibition at 1 µM [15]	inhibition at 10 µM [15]	other results
5.96	5.74	Cc1c(C)n(CCCN2CCN(C)CC2)c2ccc(Cc3cccc(C(=O)N4CCN(CCc5cccc(F)c5)CC4)c3)cc12 [Compound 3504, (3-((2,3-dimethyl-1-(3-(4-methylpiperazin-1-yl)propyl)-1H-indol-5-yl)methyl)phenyl)(4-(3-fluorophenethyl)piperazin-1-yl)methanone]	–	–	–	–	–	–	–	–	–	–	–	–	–	–	–	–	–	–	disruption of the total actin cytoskeleton [1]: in a dose-dependent manner; disruption of Tpm3.1-containing actin filaments [2]: in a dose-dependent manner; pIC50 [5, 18]: 5.70; pIC50 [6, 19]: 5.80; pIC50 [7, 20]: 5.82; pIC50 [8, 21]: 5.82; pIC50 [9, 22]: 5.85
–	–	COc1ccc(CCN2CCN(C(=O)c3ccc(Cc4ccc5c(c4)c(C)c(C)n5CCCN4CCN(C)CC4)cc3)CC2)cc1 [Compound 3520, (4-((2,3-dimethyl-1-(3-(4-methylpiperazin-1-yl)propyl)-1H-indol-5-yl)methyl)phenyl)(4-(4-methoxyphenethyl)piperazin-1-yl)methanone]	1%	0%	4%	-8%	-1%	12%	-11%	-7%	1%	-10%	-9%	3%	-8%	-13%	-12%	-8%	-10%	-14%	pIC50 [3, 23]: 5.60; pIC50 [4, 24]: 5.46; pIC50 [5, 25]: 5.64; pIC50 [6, 26]: 5.62; pIC50 [7, 27]: 5.55; pIC50 [8, 28]: 5.64; pIC50 [9, 29]: 5.57
–	–	Cc1c(C)n(CCCN2CCN(C)CC2)c2ccc(Nc3ccc(C(=O)N4CCN(CCc5cccc(F)c5)CC4)cc3)cc12 [Compound 3534, (4-((2,3-dimethyl-1-(3-(4-methylpiperazin-1-yl)propyl)-1H-indol-5-yl)amino)phenyl)(4-(3-fluorophenethyl)piperazin-1-yl)methanone]	23%	39%	85%	-5%	-1%	20%	1%	1%	12%	13%	21%	48%	0%	-8%	11%	2%	5%	-12%	pIC50 [3, 23]: 5.92; pIC50 [4, 24]: 5.49; pIC50 [5, 25]: 5.55; pIC50 [6, 26]: 5.82; pIC50 [7, 27]: 5.80; pIC50 [8, 28]: 5.85; pIC50 [9, 29]: 5.85
5.48	5.24	COc1ccc2cc(CCN3CCN(C(=O)c4cccc(Cc5ccc6c(c5)c(C)c(C)n6CCCN5CCN(C)CC5)c4)CC3)ccc2c1 [Compound 3538, (3-((2,3-dimethyl-1-(3-(4-methylpiperazin-1-yl)propyl)-1H-indol-5-yl)methyl)phenyl)(4-(2-(6-methoxynaphthalen-2-yl)ethyl)piperazin-1-yl)methanone]	24%	58%	86%	-19%	-20%	30%	21%	42%	86%	-13%	-13%	-10%	1%	8%	11%	-10%	-4%	-7%	pIC50 [5, 18]: 5.41; pIC50 [6, 19]: 5.37; pIC50 [7, 20]: 5.44; pIC50 [8, 21]: 5.32; pIC50 [9, 22]: 5.38
